Measured values from patent publication EP4803519A1, “NOVEL PRMT5 INHIBITOR AND USE THEREOF” (Shanghai Apeiron Therapeutics Company Limited, priority 2023, dated 2025).

How the values were obtained:
Format in all cases: cell-based
HCT-116 wild-type cells = experiment: Inhibitory activity on proliferation of HCT-116 wild-type cells (Cell-Titer Glo); conditions: Homo sapiens, 144 h, incubated 6 d, 0-10,000 nM
Method: (§1) Materials and cells: HCT-116 wild-type cells were purchased from Kyinno Biotechnology (China); RPMI-1640 medium, and fetal bovine serum were purchased from Thermo Fisher (United States); 384-well plates were purchased from PerkinElmer (United States); Cell-Titer Glo kit was purchased from Promega (United States).
Cell culture: HCT-116 wild-type cells were cultured in RPMI-1640 medium containing 10% fetal bovine serum at 37°C and 5% carbon dioxide. Only cells in the logarithmic growth phase could be used for the test.
Test of cell proliferation activity: Cell-Titer Glo kit was used to test the proliferation inhibitory activity of the compound on HCT-116 wild-type cells. The cell concentration was adjusted, rendering that cells were inoculated into a 384-well plate at 40 µL per well and incubated overnight at 37°C and 5% carbon dioxide. 80 nL of the compound was added to each well to reach a final concentration of 0-10,000 nM (starting concentration 10,000 nM, 2.5-fold dilution, 10 points), and the cell plate with 0.2% DMSO content was incubated at 37°C and 5% carbon dioxide for 6 d. 40 µL of Cell-Titer Glo reagent was added to test cell viability.

[1] = system: LU99 MTAP overexpressing cells; experiment: Inhibitory activity on proliferation of LU99 MTAP overexpressing cells (Cell-Titer Glo); conditions: Homo sapiens, Lu-99, 144 h, incubated 6 d, 0-10,000 nM
Method: (§2) Materials and cells: LU99 MTAP overexpressing cell line was purchased from Kyinno Biotechnology (China); cell culture medium and fetal bovine serum were purchased from Thermo Fisher Scientific (USA); 384-well plates were purchased from PerkinElmer (USA); Cell-Titer Glo kits were purchased from Promega (USA).
Cell culture: LU99 MTAP overexpressing cells were cultured with medium containing 10% fetal bovine serum at 37°C in 5% carbon dioxide. Only cells in the logarithmic growth phase could be used for the test.
(§3) Test of inhibitory activity on cell proliferation: The Cell-Titer Glo kit was used to test the proliferation inhibitory activity of the compounds on LU99 MTAP overexpressing cells. The cell concentration was adjusted, rendering that cells were inoculated into a 384-well plate at 40 µL per well and incubated overnight at 37°C and 5% carbon dioxide. 40 nL of the compound was added to each well to reach a final concentration of 0-10,000 nM (starting concentration 10,000 nM, 2.5-fold dilution, 10 points), and the cell plate with 0.2% DMSO content was incubated at 37°C and 5% carbon dioxide for 6 d. 40 µL of Cell-Titer Glo reagent was added to test cell viability.

[2] = system: LU99 MTAP(-/-)deleted cells; experiment: Inhibitory activity on proliferation of LU99 MTAP(-/-)deleted cells (Cell-Titer Glo); conditions: Homo sapiens, Lu-99, 144 h, incubated 6 d, 0-1,000 nM
Method: as §2, with “deleted” for “overexpressing”
Cell culture: LU99 MTAP(-/-)deleted cells were cultured with medium containing 10% fetal bovine serum at 37°C in 5% carbon dioxide. Only cells in the logarithmic growth phase could be used for the test.
as §3, with “MTAP(-/-)deleted” for “MTAP overexpressing”, “0-1,000” for “0-10,000”, “1,000” for “10,000”

[3] = system: HCT-116 MTAP(-/-)deleted cells; experiment: Inhibitory activity on proliferation of HCT-116 MTAP(-/-)deleted cells (Cell-Titer Glo); conditions: Homo sapiens, 144 h, incubated 6 d, 0-1,000 nM
Method: as §1, with “MTAP(-/-)deleted” for “wild-type”
Cell culture: HCT116 MTAP(-/-)deleted cells were cultured with RPMI 1640 medium containing 10% fetal bovine serum at 37°C in 5% carbon dioxide. Only cells in the logarithmic growth phase could be used for the test.
Test of inhibitory activity on cell proliferation: The Cell-Titer Glo kit was used to test the proliferation inhibitory activity of the compounds on HCT-116 MTAP(-/-)deleted cells. The cell concentration was adjusted, rendering that cells were inoculated into a 384-well plate at 40 µL per well and incubated overnight at 37°C and 5% carbon dioxide. 80 nL of the compound was added into each well to reach a final concentration of 0-1,000 nM (starting concentration 1,000 nM, 2.5-fold dilution, 10 points), and the cell plate with 0.2% DMSO content was incubated at 37°C and 5% carbon dioxide for 6 d. 40 µL of Cell-Titer Glo reagent was added to test cell viability.

Row | IC50 (HCT-116 wild-type cells) [nM] | IC50 [3] [nM] | Structure (SMILES) | IC50 [1] [nM] | IC50 [2] [nM]
1 | 3080 | 38.4 | CC1OCc2c1c(N)nc1cnc(C(=O)N(C)C3COC(C)(C)c4cc(C(F)(F)F)ccc43)cc21 (centres unmarked) [Example 18, 4-Amino-N-(1,1-dimethyl-7-(trifluoromethyl)isochroman-4-yl)-N,3-dimethyl-1,3-dihydrofuro[3,4-c][1,7]naphthyridine-8-carboxamide] | 3970 | 62.9
2 | 4370 | 20.8 | CN(C(=O)c1ccc2nc(N)c3c(cnn3C)c2c1)[C@@H]1COC(C)(C)c2cc(C(F)(F)F)ccc21 [Example 21, (S)-4-amino-N-(1,1-dimethyl-7-(trifluoromethyl)isochroman-4-yl)-N,3-dimethyl-3H-pyrazolo[3,4-c]quinoline-8-carboxamide] | 2820 | 33.7
3 | 1250 | 13.4 | CN(C(=O)c1ccc2nc(N)c3ccncc3c2c1)C1COC(C)(C)c2cc(C(F)(F)F)ccc21 (centres unmarked) [Example 22, 5-amino-N-(1,1-dimethyl-7-(trifluoromethyl)isochroman-4-yl)-N-methylbenzo[c][2,6]naph thyridine-9-carboxamide] | 771 | 25.5
4 | 4860 | 99.4 | CN(C(=O)c1ccc2nc(N)c3c(c2c1)CCOC3)[C@@H]1COC(C)(C)c2cc(C(F)(F)F)ccc21 [Example 23] | 3170 | 79.5
5 | 156 | 15.1 | CN(C(=O)c1cc2c(cc1Cl)nc(N)c1cnn(C)c12)C1COC(C)(C)c2cc(C(F)(F)F)ccc21 (centres unmarked) [Example 24, 4-amino-7-chloro-N-(1,1-dimethyl-7-(trifluoromethyl)isochroman-4-yl)-N,1-dimethyl-1H-pyrazolo[4,3-c]quinoline-8-carboxamide] | 252 | 16.4
6 | > 10000 | 817 | CN(C(=O)c1cc2c3c(c(N)nc2cn1)COC3)[C@H]1COC(C)(C)c2cc(C(F)(F)F)ccc21 [Example 25, (R)-4-Amino-N-(1,1-dimethyl-7-(trifluoromethyl)isochroman-4-yl)-N-methyl-1,3-dihydrofuro[3,4-c][1,7]naphthyridine-8-carboxamide] | > 10000 | 503
7 | 2050 | 11 | CN(C(=O)c1cc2c3c(c(N)nc2cn1)COC3)[C@@H]1COC(C)(C)c2cc(C(F)(F)F)ccc21 [Example 26, (S)-4-Amino-N-(1,1-dimethyl-7-(trifluoromethyl)isochroman-4-yl)-N-methyl-1,3-dihydrofuro[3,4-c][1,7]naphthyridine-8-carboxamide] | 1310 | 14.9
8 | > 10000 | 74 | CN(C(=O)c1cc2c(cn1)nc(N)c1cnn(C)c12)[C@H]1COC(C)(C)c2cc(C(F)(F)F)ccc21 [Example 27, (R)-4-amino-N-(1,1-dimethyl-7-(trifluoromethyl)isochroman-4-yl)-N,1-dimethyl-1H-pyrazolo[4,3-c][1,7]naphthyridine-8-carboxamide] | 9590 | 51.9
9 | 226 | 10.3 | CN(C(=O)c1cc2c(cn1)nc(N)c1cnn(C)c12)[C@@H]1COC(C)(C)c2cc(C(F)(F)F)ccc21 [Example 28, (S)-4-amino-N-(1,1-dimethyl-7-(trifluoromethyl)isochroman-4-yl)-N,1-dimethyl-1H-pyrazolo[4,3-c][1,7]naphthyridine-8-carboxamide] | 376 | 10.7
10 | 1790 | 17 | CN(C(=O)c1cc2c3c(c(N)nc2cn1)COC3)C1COC2(CCC2)c2cc(C(F)(F)F)ccc21 (centres unmarked) [Example 29, 4-Amino-N-methyl-N-(7'-(trifluoromethyl)spiro[cyclobutane-1,1'-isochroman]-4'-yl)-1,3-dihydrofuro[3,4-c][1,7]naphthyridine-8-carboxamide] | 1030 | 23.7
11 | 767 | 5.3 | CN(C(=O)c1ccc2nc(N)c3cnn(C)c3c2c1)C1COC2(CCC2)c2cc(C(F)(F)F)ccc21 (centres unmarked) [Example 30] | 862 | 10.9
12 | 1530 | 5.7 | CN(C(=O)c1ccc2nc(N)c3cnn(C)c3c2c1)[C@@H]1COC(C)(C)c2cc(-c3cnn(C(F)(F)F)c3)ccc21 [Example 32, (S)-4-amino-N-(1,1-dimethyl-7-(1-(trifluoromethyl)-1H-pyrazol-4-yl)isochroman-4-yl)-N,1-dimethyl-1H-pyrazolo[4,3-c]quinoline-8-carboxamide] | 1890 | 6.8
13 | 1340 | 5.3 | CN(C(=O)c1ccc2nc(N)c3cnn(C)c3c2c1)[C@@H]1COC(C)(C)c2cc(N3CCOCC3)ccc21 [Example 33, (S)-4-amino-N-(1,1-dimethyl-7-morpholinoisochroman-4-yl)-N,1-dimethyl-1H-pyrazolo[4,3-c]quinoline-8-carboxamide] | 2260 | 8.6
14 | 1620 | 8.5 | Cc1ncc(-c2ccc3c(c2)C(C)(C)OC[C@H]3N(C)C(=O)c2ccc3nc(N)c4cnn(C)c4c3c2)cn1 [Example 34, (S)-4-amino-N-(1,1-dimethyl-7-(2-methylpyrimidin-5-yl)isochroman-4-yl)-N,1-dimethyl-1H-pyrazolo[4,3-c]quinoline-8-carboxamide] | 1660 | 5.2
15 | 2100 | 15 | Cc1nn(C)c2c1c(N)nc1ccc(C(=O)N(C)[C@@H]3COC(C)(C)c4cc(C(F)(F)F)ccc43)cc12 [Example 35, (S)-4-amino-N-(1,1-dimethyl-7-(trifluoromethyl)isochroman-4-yl)-N,1,3-trimethyl-1H-pyrazolo[4,3-c]quinoline-8-carboxamide] | 858 | 24.2
16 | 2840 | 95.1 | CN(C(=O)c1ccc2nc(N)c3ncncc3c2c1)[C@@H]1COC(C)(C)c2cc(C(F)(F)F)ccc21 [Example 36, N-[(4S)-1,1-dimethyl-7-(trifluoromethyl)isochroman-4-yl](5-aminopyrimido[4,5-c]quinolin-9-yl)-N-methylformamide] | 668 | 116
17 | 4100 | 33.4 | CN(C(=O)c1ccc2nc(N)c3cnccc3c2c1)[C@@H]1COC(C)(C)c2cc(C(F)(F)F)ccc21 [Example 37, (S)-5-amino-N-(1,1-dimethyl-7-(trifluoromethyl)isochroman-4-yl)-N-methylbenzo[c][2,7]naph thyridine-9-carboxamide] | 810 | 36.4
